Legend:
Dupilumab (hIgG4) = assay: Small bioconjugation handle installation to other IgGs (Q-ToF LC-MS); type: biochemical, human; conditions: 20 equivalents, room temperature
Description: (§1) Reactions were performed on a 10 μL scale using 0.2 mL PCR tubes (FIG. 64). First, the electrophile-attached Z33 peptide reagent was dissolved in water to prepare a 2 mg/mL solution. IgG (human WN1 (prepared as previously described (ChemBioChem, 19, 2039-2044 (2018)), denosumab (Invitrogen), dupilumab (Invitrogen), or mouse IgG1 (Invitrogen, subtype controlled)), electrophile-attached Z33 peptide reagent (2 mg/mL), HEPES buffer (pH 8.5), and NaCl solution were added to achieve final concentrations of 5 μM, 100 μM, 100 mM, and 200 mM. The contents were mixed using a 5 μL pipette and incubated at room temperature in the dark for 24 hours. The resulting reaction solution was quenched with a 100 mM Tris buffer and analyzed by LC-MS (FIGS. 53A to 53D, Table 10). Sample preparation for LC-MS analysis was performed in the same manner as previously described.
(§2) Reactions were performed on a 10 μL scale using 0.2 mL PCR tubes. First, the electrophile-attached Z33 peptide reagent was dissolved in water to prepare a 2 mg/mL solution. Denosumab (Invitrogen), dupilumab (Invitrogen), or mouse IgG1 (Invitrogen, subtype controlled)), electrophile-attached Z33 peptide reagent (2 mg/mL), HEPES buffer (pH 8.5), and NaCl solution were added to achieve final concentrations of 5 μM, 100 μM, 100 mM, and 200 mM. […] The resulting reaction solution was quenched with a 100 mM Tris buffer and analyzed by LC-MS. […]

Mouse IgG1 = assay: as above; type: biochemical; conditions: 20 equivalents, room temperature
Sequence of Mouse IgG1 (P01868 98-324 limits assumed): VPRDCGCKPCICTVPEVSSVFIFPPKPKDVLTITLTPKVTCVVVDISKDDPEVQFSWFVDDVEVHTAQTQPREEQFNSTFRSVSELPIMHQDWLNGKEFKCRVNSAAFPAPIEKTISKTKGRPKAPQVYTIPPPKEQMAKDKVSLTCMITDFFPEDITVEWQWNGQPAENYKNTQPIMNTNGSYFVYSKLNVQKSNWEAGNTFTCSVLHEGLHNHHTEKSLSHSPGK
Description: as §1, §2

Trastuzumab = biological target: T1, Trastuzumab (Homo sapiens, UniProt P01857, D239E/L241M); assay: Determination of the modification sites (Trypsin/Lys-C digest, nLC-MS/MS); type: biochemical; conditions: Tmab, LC-MS/MS sequencing
T1 construct: purchased Syd Labs Inc; MedChemExpress LLC; Bio X Cell
Description: The modified trastuzumab (30 μg) from entry 6 of 5.2.1 was diluted to 36 μL using Tris buffer (50 mM, pH 8.0). PNGase F (New England BioLabs, 200 units) was added to the solution and incubated at 37° C. for 4 hours. The reaction solution was then brought to room temperature, and urea solution (6M in 50 mM Tris pH 8.0, 14 μL) and DTT solution (200 mM, 1.5 μL) were added and incubated at 37° C. for 1 hour. After that, iodoacetamide (800 mM, 1 μL) was added and incubated at room temperature for 30 minutes. The resulting solution was diluted 2-fold using Tris buffer (50 mM, pH 8.0), and then Trypsin/Lys-C mix (Promega, 0.2 μg/μL in solution, 6 μL) was added and incubated at 37° C. for 18 hours. The reaction solution was then purified by pipetting with Ziptip, lyophilized, and analyzed by nLC-MS/MS (using nLC-MS/MS method B). Obtained raw data were analyzed using Thermo Scientific FreeStyle™ 1.6. […]
The modified trastuzumab (30 μg) from entry 6 of 5.2.1 was diluted to 36 μL using Tris buffer (50 mM, pH 8.0). […] The reaction solution was then purified by pipetting with Ziptip, lyophilized, and analyzed by nLC-MS/MS (using nLC-MS/MS method B). Obtained raw data were analyzed using Thermo Scientific FreeStyle™ 1.6. […]

Fc fragment of IgG1 = assay: Binding affinity of Z33 and variants to IgG Fc
[1] = HEPES pH 8.5, first column so headed
[2] = HEPES pH 8.5, second column so headed

Site of modification (Trastuzumab): Lys-317 | Kd (Fc fragment of IgG1): ~60 nM
Sequence: FNMQQQRRFYEALHD PNLNHcyEQRNAKIKSI RDD [PEL-21]
Light chain total conversion (Dupilumab (hIgG4); [1]): 13% | Light chain total conversion (Dupilumab (hIgG4); [2]): 96% | Light chain total conversion (Mouse IgG1; [1]): 2% | Light chain total conversion (Mouse IgG1; [2]): 69%

Source: patent publication US20250127918A1, “SITE-SELECTIVE CONJUGATION OF A PHARMACEUTICAL AGENT TO AN ANTIBODY USING AN AFFINITY PEPTIDE” (priority 2023, published 2025)
